Measured values published in paper PMC6095690, “Coalescing beneficial host and deleterious antiparasitic actions as an antischistosomal strategy” (eLife, 2018).

Key:
[1] = tested on: forskolin evoked cAMP production in HEK293 cells lacking Sm.5HTRL; test: counter-screen of antagonist hits: forskolin evoked cAMP production in parental reporter line; type: cell-based
[2] = biological target: T1, Sm.5HTRL (Schistosoma mansoni, UniProt A0A173FEI8)
[3] = biological target: Sh.5HTR (Schistosoma haematobium, UniProt A0A922S615); type: cell-based; settings: HEK293; maximal cAMP response relative to 5-HT
[4] = biological target: Sj.5HTR (Schistosoma japonicum, UniProt A0A346LTY2); test: cell-based; settings: HEK293
Chain of Sj.5HTR (A0A346LTY2 entry or part of it): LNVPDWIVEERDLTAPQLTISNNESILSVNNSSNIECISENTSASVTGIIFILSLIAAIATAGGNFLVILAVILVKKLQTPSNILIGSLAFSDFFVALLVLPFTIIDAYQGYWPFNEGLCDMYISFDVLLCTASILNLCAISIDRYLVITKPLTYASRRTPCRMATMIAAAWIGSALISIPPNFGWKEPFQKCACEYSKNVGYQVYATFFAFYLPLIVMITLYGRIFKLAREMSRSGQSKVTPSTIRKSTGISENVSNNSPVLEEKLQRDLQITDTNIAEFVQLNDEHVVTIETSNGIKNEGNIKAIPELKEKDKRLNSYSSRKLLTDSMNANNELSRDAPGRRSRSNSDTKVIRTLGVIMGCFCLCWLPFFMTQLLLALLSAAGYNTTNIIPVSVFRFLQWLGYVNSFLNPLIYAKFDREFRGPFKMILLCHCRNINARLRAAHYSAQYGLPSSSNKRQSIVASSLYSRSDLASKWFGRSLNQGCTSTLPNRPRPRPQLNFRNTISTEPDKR

[5] = tested on: adult S. mansoni parasites; test: adult worm movement assay ex vivo; set-up: species or system Schistosoma mansoni; settings: Schistosoma mansoni; ex vivo, ± 95% confidence interval; read-out: EC50 for stimulation of adult schistosome movement
[6] = tested on: immature S. mansoni; test: movement of immature worms harvested 4 weeks post infection, ex vivo; set-up: species or system Schistosoma mansoni; settings: male worms 4 weeks post infection
Description: Figure 6. […] Figure 6—figure supplement 1. […] Scale = 50 µm. [drawing 7]

[7] = tested on: liver signaling pathways; test: Ingenuity Pathway Analysis of transcripts differentially expressed in drug treated livers relative to control infections; type: in vivo, mouse
[8] = biological target: T1, Sm.5HTRL; test: cell-based; settings: HEK293
[9] = tested on: S. mansoni (mature infection in Swiss Webster mice); test: hepatic shift assay in infected mice; settings: intraperitoneal, sacrificed three hours later; dose not given
[10] = tested on: adult S. mansoni male and female pairs; test: egg laying assay of worm pairs cultured ex vivo; settings: 1 µM
[11] = tested on: liver of S. mansoni infected mice; test: liver histology and immunohistochemistry of infected drug treated mice; settings: ergotamine 60 mg/kg
[12] = tested on: immature S. mansoni (infection in mice); test: curative efficacy against immature infection in mice (dosing weeks 3-4 post infection); settings: dosing 3–4 weeks post infection, worm burden at 7 weeks; ERG 60 mg/kg, PZQ 50 mg/kg
[13] = tested on: S. mansoni (mature infection in Swiss Webster mice); test: curative efficacy against mature infection in mice (survival, worm burden, egg counts, organ weights)
[14] = tested on: human 5-HT2B receptor; set-up: method as in Chan et al., 2017; settings: contracts host mesenteric vessels; ref Chan et al., 2017; cited from earlier work

T1 sequence (A0A173FEI8 1-547): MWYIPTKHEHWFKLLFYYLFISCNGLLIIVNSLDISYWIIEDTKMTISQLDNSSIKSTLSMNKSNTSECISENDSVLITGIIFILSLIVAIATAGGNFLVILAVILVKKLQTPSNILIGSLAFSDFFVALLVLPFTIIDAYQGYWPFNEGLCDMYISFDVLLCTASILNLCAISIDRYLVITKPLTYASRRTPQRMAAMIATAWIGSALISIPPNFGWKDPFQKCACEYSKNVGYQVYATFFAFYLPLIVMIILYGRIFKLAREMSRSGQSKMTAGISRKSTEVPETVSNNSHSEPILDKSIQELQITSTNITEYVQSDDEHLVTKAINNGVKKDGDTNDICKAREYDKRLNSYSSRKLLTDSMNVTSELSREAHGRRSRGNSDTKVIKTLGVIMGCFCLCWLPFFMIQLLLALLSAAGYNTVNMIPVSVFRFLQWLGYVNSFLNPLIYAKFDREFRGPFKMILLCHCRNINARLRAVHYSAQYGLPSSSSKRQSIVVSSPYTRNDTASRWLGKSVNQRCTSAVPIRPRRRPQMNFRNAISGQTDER

Structure (SMILES): C[C@@H]1CC[C@@]2(OC1)O[C@H]1[C@@H](O)[C@H]3[C@@H]4CC[C@H]5C[C@@H](O[C@@H]6O[C@H](CO)[C@H](O[C@@H]7O[C@H](CO)C(O)[C@H](O[C@@H]8OC[C@@H](O)[C@H](O)[C@H]8O)[C@H]7O[C@@H]7O[C@H](CO)[C@H](O)[C@H](O[C@@H]8O[C@H](CO)[C@@H](O)[C@H](O)[C@H]8O)[C@H]7O)[C@H](O)[C@H]6O)[C@H](O)C[C@]5(C)[C@H]4CC[C@]3(C)[C@H]1[C@@H]2C (some centres unmarked) [ST069321]
- (-) Sm.5HTR Forskolin response (% of DMSO) [1]: 0.15 % of DMSO
- (+) Sm.5HTR 5-HT response (% of DMSO) [2]: 0.1068 % of DMSO

Structure (SMILES): CN1C[C@H](C(=O)N[C@]2(C)O[C@@]3(O)[C@@H]4CCCN4C(=O)[C@H](Cc4ccccc4)N3C2=O)C=C2c3cccc4[nH]cc(c34)C[C@H]21 [ergotamine, Ergotamine]
- Emax [3]: 96 ± 5%
- Emax [4]: 114 ± 3%
- EC50 [5]: 97.8 ± 31.6 nM
- effect on movement of juvenile worms [6]: stimulated movement of juvenile worms
- effect on gene products associated with HSC activation [7]: down-regulated gene products associated with HSC activation
- type of activity at schistosome 5-HTRs [2]: full agonists
- Emax [8]: 95 ± 4%
- percentage of worms in the liver [9]: 75.1 ± 16.9%
- morphology of eggs laid by treated worms [10]: often small and deformed
- granuloma formation and fibrosis in liver sections [11]: decreased granuloma formation and fibrosis
- hepatic microvesicular steatosis / microvascular damage ([11]; H and E staining): not observed
- effect on immature infection [12]: did not resolve infections
- worm burden ([13]; 60 mg/kg twice daily 42–49 days p.i., control 28 ± 8): 9 ± 6 worm pairs per mouse
- reduction of worm burden ([13]; 60 mg/kg twice daily 42–49 days p.i., p<0.002): ~ 65%
- reduction of infection-promoted increase in spleen mass ([13]; 60 mg/kg twice daily 42–49 days p.i., relative to vehicle treated controls): 55.8 ± 14.0%
- reduction in intestinal egg burden ([13]; ergotamine 60 mg/kg twice daily or PZQ 50 mg/kg, 42–49 days p.i.): 96.3 ± 1.2%
- effect on hepatosplenomegaly ([13]; one week treatment starting at 42 days p.i.): prevented hepatosplenomegaly

Structure (SMILES): O=C(C1CCCCC1)N1CC(=O)N2CCc3ccccc3[C@@H]2C1 [R-PZQ]
- type of activity at human 5-HT2B receptor [14]: partial agonist
